Data from patent US20070128217A1 (priority 2003, published 2007).

Key:
[1] = tested on: antibodies in sera from SARS patients (sera 1a, 1b, 2, 6, 37, 62, London, SARS-yellow, SARS-green); assay type: binding, human; parameters: Binding of serum 6 to linear peptides of protein X1 of SARS-CoV Urbani / Binding of serum 37 to linear peptides of protein X1 of SARS-CoV Urbani / Binding of serum 6 to looped/cyclic peptide (PEPSCAN-ELISA) / Binding of serum 37 to looped/cyclic peptide (PEPSCAN-ELISA) / Binding of serum 37 to looped/cyclic peptides of protein X1 of SARS-CoV Urbani / Binding of serum 6 to linear peptides of protein X2 / Binding of serum 37 to linear peptides of protein X2 / Binding of serum 37 to looped/cyclic peptides of protein X2 of SARS-CoV Urbani / Binding of serum 6 to linear peptides of protein M of SARS-CoV Urbani / Binding of serum 37 to linear peptides of protein M of SARS-CoV Urbani / Binding of serum 6 to looped/cyclic peptides of protein M of SARS-CoV Urbani / Binding of serum 37 to looped/cyclic peptides of protein M of SARS-CoV Urbani / Binding of serum 6 to linear peptides of protein X3 of SARS-CoV Urbani / Binding of serum 37 to linear peptides of protein X3 of SARS-CoV Urbani / Binding of serum 37 to looped/cyclic peptides of protein X3 of SARS-CoV Urbani / Binding of serum 6 to linear peptides of protein X4 of SARS-CoV Urbani / Binding of serum 37 to linear peptides of protein X4 of SARS-CoV Urbani / Binding of serum 37 to looped/cyclic peptides of protein X4 of SARS-CoV Urbani / Binding of serum 6 to linear peptides of protein X5 of SARS-CoV Urbani / Binding of serum 37 to linear peptides of protein X5 of SARS-CoV Urbani / Binding of serum 37 to looped/cyclic peptides of protein X5 of SARS-CoV Urbani / Binding of serum 6 to linear peptides of protein N of SARS-CoV Urbani / Binding of serum 37 to linear peptides of protein N of SARS-CoV Urbani / Binding of serum 6 to linear peptide (PEPSCAN-ELISA) / Binding of serum 1a to looped/cyclic peptides of protein N of SARS-CoV Urbani / Binding of serum 1b to looped/cyclic peptides of protein N of SARS-CoV Urbani / Binding of serum 2 to looped/cyclic peptides of protein N of SARS-CoV Urbani / Binding of serum 6 to looped/cyclic peptides of protein N of SARS-CoV Urbani / Binding of serum 37 to looped/cyclic peptides of protein N of SARS-CoV Urbani / Binding of serum 62 to looped/cyclic peptides of protein N of SARS-CoV Urbani / Binding of serum London to looped/cyclic peptides of protein N of SARS-CoV Urbani / Binding of serum SARS-green to looped/cyclic peptides of protein N of SARS-CoV Urbani: unit not given here
[2] = tested on: control sera (pooled serum of ten healthy LUMC hospital workers; commercial negative donor pooled serum from the Dutch bloodbank); assay type: binding, human; parameters: Binding of Control serum LUMC to linear peptides / Binding of Control serum Blood-bank to linear peptides / Binding of Control serum LUMC to looped peptides / Binding of Control Serum Blood-Bank to Looped peptides / Binding of Control serum LUMC to linear peptides of the protein M of SARS-CoV Urbani / Binding of Control serum Blood-bank to linear peptides of the protein M of SARS-CoV Urbani / Binding of Control serum LUMC to looped peptides of the protein M of SARS-CoV Urbani / Binding of Control Serum Blood-Bank to Looped peptides of the protein M of SARS-CoV Urbani: unit not given here
[3] = tested on: rabbit serum obtained by immunizing a rabbit with the SARS-CoV strain Frankfurt 1; assay type: binding; parameters: Binding of a rabbit serum to linear peptides / Binding of a rabbit serum to looped peptides / Rabbit serum linear peptides / Rabbit serum looped peptides / Binding of a rabbit serum to linear peptides of protein N of SARS-CoV Urbani (Rabbit serum linear peptides) / Binding of a rabbit serum to looped/cyclic peptides of protein N of SARS-CoV Urbani (Rabbit serum looped peptides): unit not given here

Sequence: CADGTRHTYQLRARS
- Binding of serum 1a to linear peptides of protein X4 of SARS-CoV Urbani [1]: 0.6
- Binding of serum 1a to looped/cyclic peptides of protein X4 of SARS-CoV Urbani [1]: 0.7
- Binding of serum 1b to linear peptides of protein X4 of SARS-CoV Urbani [1]: 0.5
- Binding of serum 1b to looped/cyclic peptides of protein X4 of SARS-CoV Urbani [1]: 0.4
- Binding of serum 2 to linear peptides of protein X4 of SARS-CoV Urbani [1]: 0.5
- Binding of serum 2 to looped/cyclic peptides of protein X4 of SARS-CoV Urbani [1]: 0.8
- Binding of serum 6 to linear peptides of protein X4 of SARS-CoV Urbani [1]: 0.6
- Binding of serum 6 to looped/cyclic peptides of protein X4 of SARS-CoV Urbani [1]: 0.6
- Binding of serum 37 to linear peptides of protein X4 of SARS-CoV Urbani [1]: 0.7
- Binding of serum 37 to looped/cyclic peptides of protein X4 of SARS-CoV Urbani [1]: 0.7
- Binding of serum 62 to linear peptides of protein X4 of SARS-CoV Urbani [1]: 0.7
- Binding of serum 62 to looped/cyclic peptides of protein X4 of SARS-CoV Urbani [1]: 0.6
- Binding of serum London to linear peptides of protein X4 of SARS-CoV Urbani [1]: 0.8
- Binding of serum London to looped/cyclic peptides of protein X4 of SARS-CoV Urbani [1]: 0.3
- Binding of serum SARS-green to linear peptides of protein X4 of SARS-CoV Urbani [1]: 0.6
- Binding of serum SARS-green to looped/cyclic peptides of protein X4 of SARS-CoV Urbani [1]: 0.0
- Binding of serum SARS-yellow to linear peptides of protein X4 of SARS-CoV Urbani [1]: 0.7
- Binding of serum SARS-yellow to looped/cyclic peptides of protein X4 of SARS-CoV Urbani [1]: 0.6
- Binding of Control Serum Blood-Bank to Looped peptides [2]: 0.5
- Binding of Control serum Blood-bank to linear peptides [2]: 0.7
- Binding of Control serum LUMC to linear peptides [2]: 0.5
- Binding of Control serum LUMC to looped peptides [2]: 0.6
- Recognition of the peptide by the rabbit serum [3]: recognized

Sequence: LMESELVIGAVIIRG
- Binding of serum 1a to linear peptides of protein M of SARS-CoV Urbani [1]: 0.7
- Binding of serum 1a to looped/cyclic peptides of protein M of SARS-CoV Urbani [1]: 0.6
- Binding of serum 1b to linear peptides of protein M of SARS-CoV Urbani [1]: 0.5
- Binding of serum 1b to looped/cyclic peptides of protein M of SARS-CoV Urbani [1]: 0.6
- Binding of serum 2 to linear peptides of protein M of SARS-CoV Urbani [1]: 0.7
- Binding of serum 2 to looped/cyclic peptides of protein M of SARS-CoV Urbani [1]: 0.5
- Binding of serum 6 to linear peptides of protein M of SARS-CoV Urbani [1]: 0.3
- Binding of serum 6 to looped/cyclic peptides of protein M of SARS-CoV Urbani [1]: 0.4
- Binding of serum 37 to linear peptides of protein M of SARS-CoV Urbani [1]: 0.9
- Binding of serum 37 to looped/cyclic peptides of protein M of SARS-CoV Urbani [1]: 0.6
- Binding of serum 62 to linear peptides of protein M of SARS-CoV Urbani [1]: 0.8
- Binding of serum 62 to looped/cyclic peptides of protein M of SARS-CoV Urbani [1]: 0.6
- Binding of serum London to linear peptides of protein M of SARS-CoV Urbani [1]: 0.3
- Binding of serum London to looped/cyclic peptides of protein M of SARS-CoV Urbani [1]: 0.2
- Binding of serum SARS-green to linear peptides of protein M of SARS-CoV Urbani [1]: 0.3
- Binding of serum SARS-green to looped/cyclic peptides of protein M of SARS-CoV Urbani [1]: 0.3
- Binding of serum SARS-yellow to linear peptides of protein M of SARS-CoV Urbani [1]: 0.1
- Binding of serum SARS-yellow to looped/cyclic peptides of protein M of SARS-CoV Urbani [1]: 0.5
- Binding of Control Serum Blood-Bank to Looped peptides of the protein M of SARS-CoV Urbani [2]: 0.7
- Binding of Control serum Blood-bank to linear peptides of the protein M of SARS-CoV Urbani [2]: 0.8
- Binding of Control serum LUMC to linear peptides of the protein M of SARS-CoV Urbani [2]: 0.5
- Binding of Control serum LUMC to looped peptides of the protein M of SARS-CoV Urbani [2]: 0.6
- Rabbit serum linear peptides [3]: 0.4
- Rabbit serum looped peptides [3]: 0.2

Sequence: PPNVQIHTIDGSSGV
- Binding of serum 1a to linear peptides of protein X1 of SARS-CoV Urbani [1]: 0.6
- Binding of serum 1a to looped/cyclic peptides of protein X1 of SARS-CoV Urbani [1]: 0.5
- Binding of serum 1b to linear peptides of protein X1 of SARS-CoV Urbani [1]: 0.5
- Binding of serum 1b to looped/cyclic peptides of protein X1 of SARS-CoV Urbani [1]: 0.4
- Binding of serum 2 to linear peptides of protein X1 of SARS-CoV Urbani [1]: 0.4
- Binding of serum 2 to looped/cyclic peptides of protein X1 of SARS-CoV Urbani [1]: 0.3
- Binding of serum 6 to linear peptides of protein X1 of SARS-CoV Urbani [1]: 0.4
- Binding of serum 6 to looped/cyclic peptides of protein X1 of SARS-CoV Urbani [1]: 0.4
- Binding of serum 37 to linear peptides of protein X1 of SARS-CoV Urbani [1]: 0.7
- Binding of serum 37 to looped/cyclic peptides of protein X1 of SARS-CoV Urbani [1]: 0.6
- Binding of serum 62 to linear peptides of protein X1 of SARS-CoV Urbani [1]: 0.6
- Binding of serum 62 to looped/cyclic peptides of protein X1 of SARS-CoV Urbani [1]: 0.5
- Binding of serum London to linear peptides of protein X1 of SARS-CoV Urbani [1]: 0.3
- Binding of serum London to looped/cyclic peptides of protein X1 of SARS-CoV Urbani [1]: 0.2
- Binding of serum SARS-green to linear peptides of protein X1 of SARS-CoV Urbani [1]: 0.3
- Binding of serum SARS-green to looped/cyclic peptides of protein X1 of SARS-CoV Urbani [1]: 0.4
- Binding of serum SARS-yellow to linear peptides of protein X1 of SARS-CoV Urbani [1]: 0.4
- Binding of serum SARS-yellow to looped/cyclic peptides of protein X1 of SARS-CoV Urbani [1]: 0.3
- Binding of Control Serum Blood-Bank to Looped peptides [2]: 0.5
- Binding of Control serum Blood-bank to linear peptides [2]: 0.5
- Binding of Control serum LUMC to linear peptides [2]: 0.5
- Binding of Control serum LUMC to looped peptides [2]: 0.7
- Binding of a rabbit serum to linear peptides [3]: 0.1
- Binding of a rabbit serum to looped peptides [3]: 0.5
